Like-named read-outs stand apart in the source and are kept apart here.
Tests used:
[1] = target: T1, GST-CIB1 : F-αIIb peptide (Homo sapiens, UniProt Q99828); experiment: FP assay in the presence of glutathione (GSH), thiol reactivity; type: binding
T1 construct: made in house; host or cells: BL-21 plus RIL cells (E. coli)
T1 sequence (Q99828 1-191): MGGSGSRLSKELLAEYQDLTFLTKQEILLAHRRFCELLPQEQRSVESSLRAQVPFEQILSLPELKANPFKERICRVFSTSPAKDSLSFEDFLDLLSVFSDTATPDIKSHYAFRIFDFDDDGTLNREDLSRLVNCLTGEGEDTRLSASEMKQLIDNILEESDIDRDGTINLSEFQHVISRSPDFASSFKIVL

[2] = target: T2, GST-CIB1 : F-scrambled peptide (Homo sapiens, UniProt Q99828); experiment: FP scrambled-peptide counter screen, 1536-well format; type: binding; settings: scrambled-peptide counterscreen
T2 construct: made in house; host or cells: BL-21 plus RIL cells (E. coli)
T2 sequence (Q99828 1-191): T1 sequence (Q99828 1-191)

[3] = In vitro ADME: solubility; type: physicochemical; settings: read-out: Solubility
[4] = In vitro ADME: RLM stability; settings: rat liver microsomes; read-out: Rat Liver Microsome Stability (t1/2)
[5] = target: T3, CIB1-(His)6 : F-αIIb peptide (Homo sapiens, UniProt Q99828); experiment: MST competitive binding study; settings: 200 nM F-αIIb, 4 μM CIB1-(His)6; n = 3/concentration
T3 construct: made in house
T3 sequence (Q99828 1-191): T1 sequence (Q99828 1-191)
Procedure: We sought to resolve this discrepancy by performing a competition binding study similar to the conditions of the FP HTS assay by utilizing the F-αIIb probe.
Figure 4 MST competitive binding assay. We selected 200 nM F-αIIb and a CIB1 concentration of 4 μM and tested both compounds. […] Panel (B) highlights the concentration range in which we observe different activities between the two compounds.
The binding affinity of the compounds to the CIB1-(His)6 protein in the presence of αIIb peptide was evaluated using FITC-labeled αIIb as well. Following manufacturer’s recommendation,[66] we first determined a minimum concentration of F-αIIb by performing a titration of the fluorophore (1 μM, 1:2, 8-points; final concentration range of 7.8 nM to 1 μM) in a 10 μL assay volume. Solutions were placed in standard capillaries and evaluated for the fluorescent signal using the Monolith NT.115 instrument. […] CIB1-(His)6 protein was titrated in a 2-fold dilution series (16-points, final concentration range of 15 nM to 500 μM), at a final volume of 12.5 μL. An equal volume of [2×] […] Solutions were placed in standard capillaries, incubated for approximately 1 h, and evaluated for a fluorescent signal with 50% LED excitation power, 20, 40, or 60% MST power (low, medium, high, respectively), MST on-time of 30 s, and off-time of 5 s.
Compounds were titrated in a 2-fold dilution series (16 points, final concentration range of 6.1 nM to 200 μM) and mixed with an equal volume CIB1-(His)6 protein and F-αIIb peptide (final concentrations of 4 μM and 200 nM, respectively). Solutions were incubated for 1 h at RT, then placed in standard capillaries, and evaluated for fluorescent signal (in triplicate) at the following parameters: 50% LED excitation power, 40% MST power, MST on-time of 30 s, and off-time of 5 s using Monolith NT.115 instrument. Dissociation constant (Kd) values were calculated by fitting the thermophoresis signal at 20 s of the thermograph using the MO Affinity Analysis software (Nanotemper Technologies, Munich, Germany) and confirmed using Graphpad Prism 7.

[6] = target: T4, CIB1 and αIIb interaction (GST-CIB1 : F-αIIb peptide) (Homo sapiens, UniProt Q99828); experiment: FP assay, 384-well format (screen); type: binding; design: 384-well SCREEN Efficacy (%): concentration or dose not given beside the values
T4 construct: made in house; host or cells: BL-21 plus RIL cells (E. coli)
T4 sequence (Q99828 1-191): T1 sequence (Q99828 1-191)

[7] = target: T5, CIB1 and αIIb interaction (CIB1-GST : F-αIIb peptide) (Homo sapiens, UniProt Q99828); experiment: FP assay, 1536-well qHTS format (primary and confirmatory screen); type: binding
T5 construct: made in house; host or cells: BL-21 plus RIL cells (E. coli)
T5 sequence (Q99828 1-191): T1 sequence (Q99828 1-191)

CIB1-(His)6 = target: T6, CIB1-(His)6 (Homo sapiens, UniProt Q99828); experiment: Microscale thermophoresis (MST) protein and small-molecule binding; settings: MST; fluorescently labeled CIB1-(His)6 50 nM; read-out: equilibrium dissociation constant (Kd)
T6 construct: made in house
T6 sequence (Q99828 1-191): T1 sequence (Q99828 1-191)
Procedure: Determining a direct measurement of a molecule’s binding interaction with its target is a vital parameter for characterizing a chemical probe. We employed microscale thermophoresis (MST) for this purpose, leveraging its sensitivity and capacity to deliver quantitative data on the binding interaction.[35] […] We began by testing increasing amounts of the compound(s) and incubating them with the fluorescently labeled CIB1-(His)6, followed by the detection of the MST traces on the NT automated instrument (for more details see Materials and Methods Section). […] We were able to rule out compound interference with the histidine tag on CIB1 and/or the fluorophore used for the MST assay by testing the compounds with a fluorescently labeled hexa-histidine peptide (Figure S8B).
The binding affinity of the compounds to the CIB1-(His)6 protein was evaluated using microscale thermophoresis (MST). The recombinant protein was labeled with a fluorophore using Monolith His-tag labeling RED-tris-NTA second Generation kit (Nanotemper Technologies, Munich, Germany) following the manufacturer’s protocol. Compounds were titrated in a 2-fold dilution series (16 points, final concentration range of 6.1 nM to 200 μM) and incubated with the same volume of 50 nM (final concentration; 25 nM RED-tris-NTA) labeled recombinant protein for 30 min at RT (20 μL final assay volume). […] The dissociation constant (Kd) values were calculated by fitting the thermophoresis signal at 20 s of the thermograph using the MO Affinity Analysis software (Nanotemper Technologies, Munich, Germany) and confirmed using GraphPad Prism.

[8] = target: T7, GST-CIB1:F-αIIb interaction (Homo sapiens, UniProt Q99828); experiment: Gel-based (in-gel) binding assay; settings: 1 μM GST-CIB1, 400 nM F-αIIb; 60 μM, 1:2, 4-points
T7 construct: made in house; host or cells: BL-21 plus RIL cells (E. coli)
T7 sequence (Q99828 1-191): T1 sequence (Q99828 1-191)

With `COc1ccccc1C(=O)c1no[n+]([O-])c1C(=O)c1ccccc1OC.O=C(O)C(F)(F)F` [NCGC00351170-01] the IC50 ([1]; FP assay in the presence of glutathione (GSH +), read-out: GSH (+) Assay IC50) was 1.2 µM, the IC50 ([1]; FP assay without glutathione (GSH -), read-out: GSH (-) Assay IC50) was 4 µM and the “GSH/CIB1 IC50 ratio” value ([1]; ratio of GSH (+) IC50 to GSH (-) IC50) was 0.3. The “GSH Assay Result” value ([1]; thiol reactivity call: No change / Active) was “No change”, the “COUNTERSCREEN Efficacy (%)” value [2] was -14% and the “COUNTERSCREEN Confirm?” value ([2]; YES/NO call) was “YES”. The “COUNTERSCREEN Curve Class” value ([2]; qHTS curve class) was 4, the solubility [3] was greater than 0.052 mg/mL and the half-life [4] was 1.52 min. The EC50 [5] was 2.1 µM, the IC50 ([6]; 384-well FP assay, Table 1, read-out: FP assay IC50) was 4.19 µM and the “384-well SCREEN Efficacy (%)” value ([6]; F-αIIb peptide) was 57%. For the same compound, the “384-well SCREEN Confirm?” value ([6]; F-αIIb peptide, YES/NO) was “YES”, the IC50 ([6]; F-αIIb peptide, read-out: 384-well SCREEN IC50) was 7.9 µM and the IC50 ([6]; quoted in text for comparison with MST EC50, read-out: potency in the 384-well FP assays) was roughly 4 µM. The “Confirm and Selective?” value ([6]; selective toward αIIb: negative curve class and/or IC50 ratio of >3-fold and/or >2-fold efficacy vs scrambled peptide) was “Inconclusive”, the “CONFIRMATORY SCREEN Confirm?” value ([7]; confirmatory screen, YES/NO call) was “YES” and the “CONFIRMATORY SCREEN Curve Class” value ([7]; confirmatory screen, qHTS curve class, negative sign = inhibitory curve) was -1.2. The “CONFIRMATORY SCREEN Efficacy (%)” value ([7]; confirmatory screen, negative = inhibition) was -45%, the IC50 ([7]; confirmatory screen, read-out: CONFIRMATORY SCREEN IC50) was 5.6 µM and the “Efficacy (%)” value ([7]; qHTS FP screen hits, Table S2, negative = inhibition) was -37%. The “Curve Class” value ([7]; qHTS FP screen hits, Table S2, one class per curve where COUNT > 1, negative sign = inhibitory curve) was -1.2, the IC50 ([7]; qHTS FP screen hits, Table S2, read-out: IC50) was 5 µM and the Kd (CIB1-(His)6) was 2.9 µM. The “Active in Gel Assay?” value [8] was “YES”.

— PMC11249646, “Small-Molecule Disruptors of the Interaction between Calcium- and Integrin-Binding Protein 1 and Integrin αIIbβ3 as Novel Antiplatelet Agents” (ACS Pharmacology & Translational Science, 2024)
